{
  "source": "patent US20150086643A1",
  "about": "“TRADITIONAL CHINESE MEDICINE COMPOUND ANTITUMOR NANO PREPARATION AND USE THEREOF” (priority 2013, published 2015)",
  "system": "H22 hepatoma carcinoma cells",
  "assay": "In-vivo tumor inhibitory effect in H22 tumor-bearing Kunming mice",
  "description": "The tumor-bearing Kunming mice are used to evaluate the in-vivo tumor inhibitory effect of the compound multiple-unit capsule of the present invention. Inoculating H22 hepatoma carcinoma cells (provided by Shanghai Institute of Materia Medica of Chinese Academy of Sciences) to enterocoelia of mice, taking out the H22 cells cultivated in the enterocoelia of mice after 6-8 days and preparing into homogeneous suspension with PBS; subcutaneously inoculating 0.2 mL of H22 cells (2×10^6/mL) to right axilla of each mouse. After inoculation, the mice are divided into 5 groups, 10 mice for each group: (1) Normal saline group (blank control), (2) 5-FU group (positive control), (3) 0.5% CMC-Na group, (4) Niu Huang Xing Xiao pill group and (5) Compound multiple-unit capsule group. The 5-FU group is subjected to administration through intraperitoneal injection, once every two days, with the dosage being 25 mg/kg. And the other four groups are subjected to intragastric administration. Preparation method of the Niu Huang Xing Xiao pill group and the compound multiple-unit capsule group is as follows: taking prescription amount of each component, adding the components into 0.5% CMC-Na water solution to prepare suspension. The concentration of drug for administration according to the original prescription for the groups (4) and (5) is 450 mg/kg (with the concentration of realgar being about 75 mg/kg). The tumor inhibiting rate is calculated with the following formula:\nTumor inhibiting rate=(C−T)/C×100%; C and T being average weight of the tumors on mice of the blank control and the treatment group.",
  "data": [
    {"smiles": "O=c1[nH]cc(F)c(=O)[nH]1", "note": "[Example 5-FU, 5-FU]", "values": [
      {"measurement": "Weight of mice (g) After", "setting": "after treatment, n=10", "value": "24.20 ± 1.75", "unit": "g"},
      {"measurement": "Weight of mice (g) Before", "setting": "before treatment, n=10", "value": "20.20 ± 0.92", "unit": "g"},
      {"measurement": "Weight of tumor", "setting": "n=10, 5-FU 25 mg/kg i.p. once every two days, pill and capsule 450 mg/kg intragastric", "value": "0.50 ± 0.13", "unit": "g"},
      {"measurement": "Tumor inhibiting rate (%)", "setting": "n=10, (C−T)/C×100% vs blank control, 5-FU 25 mg/kg i.p., pill and capsule 450 mg/kg intragastric", "value": 67.95, "unit": "%"}
    ]}
  ]
}
